Assay results from ChEMBL document CHEMBL4673219, “Novel 5,6-disubstituted pyrrolo[2,3-d]pyrimidine derivatives as broad spectrum antiproliferative agents: Synthesis, cell based assays, kinase profile and molecular docking study” (Bioorg Med Chem, 2018).

Columns and labels:
KM12 = assay: Growth inhibition of human KM12 cells assessed as growth percentage at 0.01 uM incubated for 48 hrs by sulforhodamine B assay relative to control; type: functional; conditions: read-out: Activity
NCI-H460 [1] = assay: Growth inhibition of human NCI-H460 cells assessed as growth percentage at 10 uM incubated for 48 hrs by sulforhodamine B assay relative to control; type: functional; conditions: read-out: Activity
MDA-MB-468 = assay: Growth inhibition of human MDA-MB-468 cells assessed as growth percentage at 0.01 uM incubated for 48 hrs by sulforhodamine B assay relative to control; type: functional; conditions: read-out: Activity
SK-MEL-28 = assay: Growth inhibition of human SK-MEL-28 cells assessed as growth percentage at 10 uM incubated for 48 hrs by sulforhodamine B assay relative to control; type: functional; conditions: read-out: Activity
NCI-H460 [2] = assay: Growth inhibition of human NCI-H460 cells assessed as growth percentage at 1 uM incubated for 48 hrs by sulforhodamine B assay relative to control; type: functional; conditions: read-out: Activity
NCI-H23 = assay: Growth inhibition of human NCI-H23 cells incubated for 48 hrs by sulforhodamine B assay; type: functional
TK-10 [3] = assay: Growth inhibition of human TK-10 cells assessed as growth percentage at 0.01 uM incubated for 48 hrs by sulforhodamine B assay relative to control; type: functional; conditions: read-out: Activity
M14 [4] = assay: Growth inhibition of human M14 cells assessed as growth percentage at 10 uM incubated for 48 hrs by sulforhodamine B assay relative to control; type: functional; conditions: read-out: Activity
UACC-62 [5] = assay: Growth inhibition of human UACC-62 cells assessed as growth percentage at 0.1 uM incubated for 48 hrs by sulforhodamine B assay relative to control; type: functional; conditions: read-out: Activity
OVCAR-4 = assay: Growth inhibition of human OVCAR-4 cells assessed as growth percentage at 1 uM incubated for 48 hrs by sulforhodamine B assay relative to control; type: functional; conditions: read-out: Activity
MCF7 [6] = assay: Growth inhibition of human MCF7 cells assessed as growth percentage at 10 uM incubated for 48 hrs by sulforhodamine B assay relative to control; type: functional; conditions: read-out: Activity
MOLT-4 = assay: Growth inhibition of human MOLT-4 cells assessed as growth percentage at 1 uM incubated for 48 hrs by sulforhodamine B assay relative to control; type: functional; conditions: read-out: Activity
A549 = assay: Growth inhibition of human A549/ATCC cells incubated for 48 hrs by sulforhodamine B assay; type: functional; conditions: Homo sapiens
IGROV-1 = assay: Growth inhibition of human IGROV-1 assessed as growth percent at 1 uM incubated for 48 hrs by sulforhodamine B assay relative to control; type: functional; conditions: read-out: Activity
HCC 2998 [7] = assay: Growth inhibition of human HCC 2998 cells assessed as growth percentage at 0.1 uM incubated for 48 hrs by sulforhodamine B assay relative to control; type: functional; conditions: read-out: Activity
M14 [8] = assay: Growth inhibition of human M14 cells assessed as growth percentage at 0.1 uM incubated for 48 hrs by sulforhodamine B assay relative to control; type: functional; conditions: read-out: Activity
MDA-MB-231 = assay: Growth inhibition of human MDA-MB-231/ATCC cells assessed as growth percentage at 0.01 uM incubated for 48 hrs by sulforhodamine B assay relative to control; type: functional; conditions: read-out: Activity
OVCAR-3 = assay: Growth inhibition of human OVCAR-3 cells assessed as growth percentage at 100 uM incubated for 48 hrs by sulforhodamine B assay relative to control; type: functional; conditions: read-out: Activity
OVCAR-5 = assay: Growth inhibition of human OVCAR-5 cells incubated for 48 hrs by sulforhodamine B assay; type: functional
Hs-578T [9] = assay: Growth inhibition of human Hs-578T cells assessed as growth percentage at 0.1 uM incubated for 48 hrs by sulforhodamine B assay relative to control; type: functional; conditions: read-out: Activity
Hs-578T [10] = assay: Growth inhibition of human Hs-578T cells assessed as growth percentage at 0.01 uM incubated for 48 hrs by sulforhodamine B assay relative to control; type: functional; conditions: read-out: Activity
MCF7 [11] = assay: Growth inhibition of human MCF7 cells assessed as growth percentage at 0.01 uM incubated for 48 hrs by sulforhodamine B assay relative to control; type: functional; conditions: read-out: Activity
SF-295 = assay: Growth inhibition of human SF-295 cells assessed as growth percentage at 10 uM incubated for 48 hrs by sulforhodamine B assay relative to control; type: functional; conditions: read-out: Activity
DU-145 = assay: Growth inhibition of human DU-145 cells incubated for 48 hrs by sulforhodamine B assay; type: functional
[12] = target: Fibroblast growth factor receptor 1 (Homo sapiens) (UniProt P11362); assay: Inhibition of human FGFR1 at 10 uM using myelin basic protein as substrate incubated for 40 mins in presence of [gamma33P]ATP by scintillation counting method relative to control
Chain of Fibroblast growth factor receptor 1 (Homo sapiens) (P11362 22-822 limits assumed): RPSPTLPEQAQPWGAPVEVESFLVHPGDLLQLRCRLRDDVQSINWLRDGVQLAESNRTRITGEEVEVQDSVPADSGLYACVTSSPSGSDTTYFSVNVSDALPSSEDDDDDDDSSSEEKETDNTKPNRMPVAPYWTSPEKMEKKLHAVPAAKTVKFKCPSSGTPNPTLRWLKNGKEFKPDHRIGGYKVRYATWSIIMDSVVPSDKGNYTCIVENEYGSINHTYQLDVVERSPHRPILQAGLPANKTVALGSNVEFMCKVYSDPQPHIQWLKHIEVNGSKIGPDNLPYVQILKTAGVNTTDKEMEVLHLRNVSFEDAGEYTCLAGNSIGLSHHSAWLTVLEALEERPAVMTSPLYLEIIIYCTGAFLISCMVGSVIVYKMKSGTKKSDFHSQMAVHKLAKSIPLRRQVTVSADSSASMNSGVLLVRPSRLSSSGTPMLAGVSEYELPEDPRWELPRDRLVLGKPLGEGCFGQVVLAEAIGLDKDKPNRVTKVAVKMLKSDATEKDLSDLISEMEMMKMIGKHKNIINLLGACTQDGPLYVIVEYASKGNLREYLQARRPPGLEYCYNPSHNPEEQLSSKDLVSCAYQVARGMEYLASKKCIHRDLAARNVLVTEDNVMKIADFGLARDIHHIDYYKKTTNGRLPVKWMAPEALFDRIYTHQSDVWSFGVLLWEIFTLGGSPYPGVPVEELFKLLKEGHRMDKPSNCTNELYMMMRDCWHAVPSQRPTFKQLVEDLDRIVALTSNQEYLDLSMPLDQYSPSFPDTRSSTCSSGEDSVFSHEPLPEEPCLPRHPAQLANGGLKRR

NCI-H460 [13] = assay: Growth inhibition of human NCI-H460 cells assessed as growth percentage at 100 uM incubated for 48 hrs by sulforhodamine B assay relative to control; type: functional; conditions: read-out: Activity
K562 [14] = assay: Growth inhibition of human K562 cells assessed as growth percentage at 0.01 uM incubated for 48 hrs by sulforhodamine B assay relative to control; type: functional; conditions: read-out: Activity
MCF7 [15] = assay: Growth inhibition of human MCF7 cells assessed as growth percentage at 100 uM incubated for 48 hrs by sulforhodamine B assay relative to control; type: functional; conditions: read-out: Activity
COLO 205 = assay: Growth inhibition of human COLO 205 cells assessed as growth percentage at 100 uM incubated for 48 hrs by sulforhodamine B assay relative to control; type: functional; conditions: read-out: Activity
MDA-MB-435 = assay: Growth inhibition of human MDA-MB-435 cells incubated for 48 hrs by sulforhodamine B assay; type: functional; conditions: Homo sapiens
UACC-62 [16] = assay: Growth inhibition of human UACC-62 cells assessed as growth percentage at 0.01 uM incubated for 48 hrs by sulforhodamine B assay relative to control; type: functional; conditions: read-out: Activity
TK-10 [17] = assay: Growth inhibition of human TK-10 cells assessed as growth percentage at 100 uM incubated for 48 hrs by sulforhodamine B assay relative to control; type: functional; conditions: read-out: Activity
SK-MEL-5 = assay: Growth inhibition of human SK-MEL-5 cells assessed as growth percentage at 1 uM incubated for 48 hrs by sulforhodamine B assay relative to control; type: functional; conditions: read-out: Activity
SN12C = assay: Growth inhibition of human SN12C cells incubated for 48 hrs by sulforhodamine B assay; type: functional
SK-MEL-2 = assay: Growth inhibition of human SK-MEL-2 cells incubated for 48 hrs by sulforhodamine B assay; type: functional; conditions: Homo sapiens, SK-MEL-2, 48 h
SNB-75 = assay: Growth inhibition of human SNB-75 cells assessed as growth percentage at 0.01 uM incubated for 48 hrs by sulforhodamine B assay relative to control; type: functional; conditions: read-out: Activity
HCC 2998 [18] = assay: Growth inhibition of human HCC 2998 cells assessed as growth percentage at 10 uM incubated for 48 hrs by sulforhodamine B assay relative to control; type: functional; conditions: read-out: Activity
K562 [19] = assay: Growth inhibition of human K562 cells incubated for 48 hrs by sulforhodamine B assay; type: functional; conditions: Homo sapiens, K562, 48 h

Molecule `Nc1nc2[nH]c(CN3CCN(c4cc(Cl)cc(Cl)c4)CC3)c(CN3CCN(c4cc(Cl)cc(Cl)c4)CC3)c2c(=O)[nH]1` has a growth at 0.01 µM (KM12) of 101%, a growth at 10 µM (NCI-H460 [1]) of 79.4% and a growth at 0.01 µM (MDA-MB-468) of 97%. It also gave a growth at 10 µM (SK-MEL-28) of 90.8%, a growth at 1 µM (NCI-H460 [2]) of 98% and a GI50 (NCI-H23) of 2.03 µM. The TGI (NCI-H23) was 3.96 µM, the growth at 0.01 µM (TK-10 [3]) was 101% and the growth at 10 µM (M14 [4]) was 79.7%. It also gave a growth at 0.1 µM (UACC-62 [5]) of 102%, a growth at 1 µM (OVCAR-4) of 83% and a growth at 10 µM (MCF7 [6]) of 23.4%. It also gave a growth at 1 µM (MOLT-4) of 90%, a TGI (A549; A549) of 3.73 µM and a GI50 (A549; A549, 48 h) of 1.82 µM. The growth at 1 µM (IGROV-1) was 96%, the growth at 0.1 µM (HCC 2998 [7]) was 99% and the growth at 0.1 µM (M14 [8]) was 98%. For the same molecule, the growth at 0.01 µM (MDA-MB-231) was 106%, the growth at 100 µM (OVCAR-3) was -84% and the GI50 (OVCAR-5) was 2.64 µM. The TGI (OVCAR-5) was 9.27 µM, the growth at 0.1 µM (Hs-578T [9]) was 88% and the growth at 0.01 µM (Hs-578T [10]) was 89%. It also gave a growth at 0.01 µM (MCF7 [11]) of 86%, a growth at 10 µM (SF-295) of 98.4% and a GI50 (DU-145; DU-145) of 1.92 µM. It also gave a TGI (DU-145; DU-145) of 3.46 µM, a CC50 (DU-145; DU-145, 48 h, read-out: LC50 (the source's name)) of 6.24 µM and an inhibition [12] of -8.65%. It also gave a growth at 100 µM (NCI-H460 [13]) of -58%, a growth at 0.01 µM (K562 [14]) of 108% and a growth at 100 µM (MCF7 [15]) of -48%. For the same molecule, the growth at 100 µM (COLO 205) was -45%, the TGI (MDA-MB-435; MDA-MB-435) was 3.04 µM and the GI50 (MDA-MB-435; MDA-MB-435, 48 h) was 1.62 µM. For the same molecule, the CC50 (MDA-MB-435; MDA-MB-435, read-out: LC50 (the source's name)) was 5.72 µM, the growth at 0.01 µM (UACC-62 [16]) was 101% and the growth at 100 µM (TK-10 [17]) was -69%. For the same molecule, the growth at 1 µM (SK-MEL-5) was 89%, the GI50 (SN12C) was 1.91 µM and the TGI (SN12C) was 3.91 µM. It also gave a GI50 (SK-MEL-2) of 2.21 µM, a TGI (SK-MEL-2) of 4.12 µM and a growth at 0.01 µM (SNB-75) of 81%. It also gave a growth at 10 µM (HCC 2998 [18]) of 24% and a GI50 (K562 [19]) of 2.33 µM.
